Among the test systems are 786-0; Hs-578T; TK-10; NCI/ADR-RES; RPMI-8226; U-251; KM12; HOP-62; SK-MEL-2; OVCAR-4; UO-31; CCRF-CEM; NCI-H460; SW-620; CAKI-1; OVCAR-5; HCT-116; DU-145; ACHN; DMS-273.
Assay in all cases: NCI tumour cell line growth inhibition, 48 h

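96-well plates; 48 h exposure; 5 concentrations. Endpoints by linear interpolation between flanking doses. Not reached: highest tested concentration assigned. GI50 is the concentration that inhibits growth by half.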 Calls of active or inactive are those of the source. No stated cut-off is given here; in the data, active = GI50 up to about 1.1 µM and inactive = higher. A value given as a limit tells only on which side of the number the result lay.

In the case of `C=C=C(C)[Si](C)(C)C`, the GI50 in the test with 786-0, in the test on Hs-578T, in the test on TK-10, in the test on NCI/ADR-RES, in the test on RPMI-8226 and in the test with U-251 was > 100 µM (inactive) each time. Also, the GI50 in the test on KM12, with HOP-62, with SK-MEL-2, in the test with OVCAR-4, in the test on UO-31 and in the test with CCRF-CEM was > 100 µM (inactive) each time. Further, the GI50 was > 100 µM (inactive) in the test with NCI-H460; 90.6 µM (inactive) in the test with SW-620; > 100 µM (inactive) in the test on CAKI-1; > 100 µM (inactive) in the test with OVCAR-5; > 100 µM (inactive) with HCT-116; > 100 µM (inactive) with DU-145. Further, the GI50 in the test on ACHN is > 100 µM (inactive).
On to `Nc1nc2c3nc(Nc4ccccc4)sc3nc(=O)n2c2sc(Nc3ccccc3)nc12`, for which the GI50 with 786-0, in the test with RPMI-8226, in the test on U-251, with HOP-62, in the test with OVCAR-4 and in the test on UO-31 was > 100 µM (inactive) in each case. Moreover, the GI50 in the test on CCRF-CEM, in the test on SW-620, with DMS-273, with HCT-116 and in the test on ACHN was > 100 µM (inactive) in each case.
As to `NNC(=S)N/N=C(\CC1OC(=O)c2ccccc21)c1ccccc1O` (centres undefined), the GI50 with 786-0 was 43.3 µM (inactive); in the test on TK-10, > 100 µM (inactive); with U-251 it was 17.3 µM (inactive); with KM12, 40.4 µM (inactive); in the test with HOP-62, 33 µM (inactive); in the test on SK-MEL-2, 26.8 µM (inactive). Also, the GI50 with OVCAR-4 was 88.7 µM (inactive); in the test on UO-31 it was 37.7 µM (inactive); in the test with CCRF-CEM, 25.9 µM (inactive); in the test on NCI-H460, 40.8 µM (inactive); with SW-620, 55.7 µM (inactive); in the test with CAKI-1, 71.8 µM (inactive). Besides, the GI50 with DMS-273 is 50.9 µM (inactive); with OVCAR-5 it was 18.2 µM (inactive); in the test with HCT-116, 36.6 µM (inactive); in the test with ACHN, 59.3 µM (inactive).
As to `COC(C)(C)OCCN1CCN(CCN2C3=C(C=C(C(C)=O)C3)Sc3ccccc32)CC1`, the GI50 in the test on 786-0 was 19.1 µM (inactive); with Hs-578T it was 15.8 µM (inactive); in the test with TK-10, 19.2 µM (inactive); in the test with NCI/ADR-RES, 20.7 µM (inactive); with RPMI-8226 it was 14.3 µM (inactive); with U-251, 18.5 µM (inactive). Further, the GI50 was 16.7 µM (inactive) in the test on KM12; 19.4 µM (inactive) in the test on HOP-62; 20.2 µM (inactive) with SK-MEL-2; 28.6 µM (inactive) in the test on OVCAR-4; 25.1 µM (inactive) in the test on UO-31; 15.2 µM (inactive) in the test on CCRF-CEM. Moreover, the GI50 is 18.8 µM (inactive) with NCI-H460; 17.5 µM (inactive) in the test with SW-620; 19.2 µM (inactive) in the test with CAKI-1; 25.4 µM (inactive) with OVCAR-5; 18 µM (inactive) with HCT-116; 21.8 µM (inactive) in the test with DU-145. In addition, the GI50 with ACHN is 18.1 µM (inactive).
In the case of `CCCCC(/C=N/NC(=N)N)CC.Cc1cc(O)c(C(C)C)cc1S(=O)(=O)O`, the GI50 was > 100 µM (inactive) in the test on 786-0; 61.7 µM (inactive) in the test with TK-10; 38.8 µM (inactive) in the test with RPMI-8226; 33.4 µM (inactive) with U-251; 52.4 µM (inactive) in the test on KM12; 39.7 µM (inactive) in the test with HOP-62. Also, the GI50 is 59.8 µM (inactive) in the test with UO-31; 56.2 µM (inactive) in the test with CCRF-CEM; 46.6 µM (inactive) with NCI-H460; 27 µM (inactive) in the test on SW-620; 38 µM (inactive) with DMS-273; 43.3 µM (inactive) in the test on HCT-116. Also, the GI50 with ACHN was 56.6 µM (inactive).
For `O=[N+]([O-])c1cc2c(cc1/C=N/n1c(CO)nc3ccccc31)OCO2`, the GI50 in the test with 786-0, in the test with Hs-578T, with TK-10, in the test with NCI/ADR-RES, in the test on RPMI-8226 and in the test on U-251 was > 100 µM (inactive) each time. The GI50 with KM12, with HOP-62, in the test on SK-MEL-2, with OVCAR-4, in the test with UO-31 and in the test with CCRF-CEM was > 100 µM (inactive) each time. The GI50 with NCI-H460, in the test with SW-620, with CAKI-1, in the test on OVCAR-5, in the test with HCT-116 and in the test on DU-145 was > 100 µM (inactive) each time. In the test with ACHN, the GI50 is > 100 µM (inactive).
Regarding `O=C(O)C1OC1(c1cccc(Cl)c1)c1ccccc1Cl` (centres undefined), the GI50 in the test with 786-0 is 43.1 µM (inactive); in the test with Hs-578T, 25.4 µM (inactive); with TK-10, 31.5 µM (inactive); in the test on NCI/ADR-RES, 18.1 µM (inactive); with RPMI-8226 it was 31.1 µM (inactive); with U-251, 11.1 µM (inactive). Moreover, the GI50 in the test with KM12 was 29.6 µM (inactive); in the test with HOP-62 it was 23.9 µM (inactive); in the test with SK-MEL-2, 15.7 µM (inactive); in the test with OVCAR-4 it was 23.5 µM (inactive); with UO-31 it was 20.8 µM (inactive); in the test on CCRF-CEM, 11.2 µM (inactive). For the same compound, the GI50 is 42.7 µM (inactive) with NCI-H460; 20.7 µM (inactive) in the test with SW-620; 20.5 µM (inactive) with CAKI-1; 58.7 µM (inactive) with OVCAR-5; 19 µM (inactive) in the test on HCT-116; 26.1 µM (inactive) with DU-145. Besides, the GI50 in the test on ACHN is 31.7 µM (inactive).
For `O=C1C(=O)N(C(=O)c2ccc(Cl)c(Cl)c2)c2ccccc21`, the GI50 in the test with 786-0, in the test on TK-10, in the test on RPMI-8226, in the test with U-251, in the test on KM12 and in the test with OVCAR-4 was > 100 µM (inactive) each time. For the same compound, the GI50 in the test on UO-31, in the test on CCRF-CEM, with SW-620, in the test on DMS-273, in the test on OVCAR-5 and in the test on ACHN was > 100 µM (inactive) in each case.
Regarding `O=C(Nc1ccc(Cl)cc1Cl)C1C(=O)OC2(CCCCC2)OC1=O`, the GI50 with 786-0 was 12.2 µM (inactive); in the test with Hs-578T, 10.8 µM (inactive); in the test with TK-10, 14.1 µM (inactive); in the test with NCI/ADR-RES it was 4.93 µM (inactive); in the test on RPMI-8226 it was 4.16 µM (inactive); in the test on U-251, 5.32 µM (inactive). The GI50 is 6.43 µM (inactive) in the test on KM12; 4.38 µM (inactive) with HOP-62; 2.93 µM (inactive) in the test on SK-MEL-2; 9.18 µM (inactive) with OVCAR-4; 2.94 µM (inactive) in the test on UO-31; 4.24 µM (inactive) with CCRF-CEM. Further, the GI50 in the test with NCI-H460 was 8.99 µM (inactive); in the test with SW-620, 5.52 µM (inactive); with CAKI-1 it was 4.78 µM (inactive); in the test with OVCAR-5, 9.12 µM (inactive); in the test on HCT-116 it was 6.08 µM (inactive); in the test on DU-145, 10.5 µM (inactive). For the same compound, in the test on ACHN, the GI50 is 6.07 µM (inactive).
With `CC(=O)N1CC(=O)N2C(=O)/C(=C/c3ccc(Cl)cc3)N=C12`, the GI50 is > 100 µM (inactive) in the test on 786-0; 30.9 µM (inactive) in the test with Hs-578T; > 100 µM (inactive) in the test on TK-10; > 100 µM (inactive) in the test on NCI/ADR-RES; 50.7 µM (inactive) in the test on RPMI-8226; > 100 µM (inactive) with U-251. Further, the GI50 was > 100 µM (inactive) with KM12; > 100 µM (inactive) in the test with HOP-62; > 100 µM (inactive) in the test with SK-MEL-2; > 100 µM (inactive) in the test with OVCAR-4; > 100 µM (inactive) in the test on UO-31; 45 µM (inactive) in the test with CCRF-CEM. Further, the GI50 in the test on NCI-H460, in the test with SW-620, in the test on CAKI-1, in the test on OVCAR-5, in the test on HCT-116 and in the test with DU-145 was > 100 µM (inactive) in each case. For the same compound, the GI50 with ACHN is > 100 µM (inactive).
As for `COc1ccc2cc(CNCCOCCOCCNCc3ccc4cc(OC)ccc4c3)ccc2c1`, the GI50 in the test on 786-0 is 0.953 µM (active); with Hs-578T, 1.64 µM (inactive); in the test on TK-10, 1.54 µM (inactive); in the test with NCI/ADR-RES, 1.48 µM (inactive); in the test with RPMI-8226 it was 0.209 µM (active); in the test with U-251 it was 1.31 µM (inactive). Moreover, the GI50 is 0.881 µM (active) in the test on KM12; 1.69 µM (inactive) with HOP-62; 1.53 µM (inactive) in the test on SK-MEL-2; 1.92 µM (inactive) with OVCAR-4; 1.32 µM (inactive) with UO-31; 0.341 µM (active) in the test with CCRF-CEM. The GI50 in the test on NCI-H460 is 0.655 µM (active); in the test on SW-620, 0.348 µM (active); in the test on CAKI-1, 1.61 µM (inactive); with OVCAR-5 it was 1.85 µM (inactive); in the test on HCT-116 it was 1.23 µM (inactive); in the test with DU-145, 1.6 µM (inactive). Besides, the GI50 in the test with ACHN was 1.6 µM (inactive).
On to `CCCCCC(=O)Nc1[nH]cnc1C(N)=O`, for which the GI50 with 786-0, with Hs-578T, with TK-10, in the test with NCI/ADR-RES, in the test with RPMI-8226 and in the test on U-251 was > 100 µM (inactive) each time. Besides, the GI50 in the test on KM12, in the test with HOP-62, in the test with SK-MEL-2, in the test on OVCAR-4, in the test on UO-31 and in the test with CCRF-CEM was > 100 µM (inactive) in each case. In addition, the GI50 in the test with NCI-H460, in the test with SW-620, with CAKI-1, with OVCAR-5, in the test on HCT-116 and with DU-145 was > 100 µM (inactive) in each case. Also, the GI50 in the test with ACHN was > 100 µM (inactive).
